Measurements reported in ChEMBL document CHEMBL3779806, “5-Carba-pterocarpens: A new scaffold with anti-HCV activity” (Eur J Med Chem, 2016).
Activity calls are given as the source filed them. The rule behind the calls is not given here.

Experiments:
[1] = Selectivity index, ratio of CC50 for human Huh7.5 cells to EC50 for HCV genotype 1b infected in Huh7/Rep-Feo1b cells; parameters: species or system Huh-7
[2] = Cytotoxicity against hamster BHK cells assessed as cell viability at 50 uM after 40 hrs by luciferase reporter gene assay relative to control; type: cell-based, Mesocricetus auratus; settings: read-out: Activity
Hepacivirus hominis [3] = test: Inhibition of HCV NS5B RNA dependent RNA polymerase activity infected in BHK-NS5B-FRLuc cells at 50 uM incubated for 40 hrs by dual luciferase reporter gene assay relative to control; type: cell-based
Hepacivirus hominis [4] = test: Inhibition of recombinant HCV NS5B RNA dependent RNA polymerase activity assessed as reduction in [alpha-32P]UTP incorporation using poly(rA)-U12 as template/primer at 50 uM incubated for 1 hr by liquid scintillation counting method relative to control
Hepatitis C virus [5] = test: Antiviral activity against HCV genotype 1b infected in Huh7/Rep-Feo1b cells assessed as inhibition of viral RNA replication after 48 hrs by luciferase reporter gene assay; type: functional, organism-based, Hepacivirus hominis; settings: Huh-7, 48 h
[6] = Cytotoxicity against human Huh7.5 cells assessed as reduction in cell viability after 48 hrs by MTS assay; type: cell-based, Huh-7
Hepatitis C virus [7] = test: Antiviral activity against HCV genotype 1b infected in Huh7/Rep-Feo1b cells assessed as inhibition of viral RNA replication at 50 uM after 48 hrs by luciferase reporter gene assay relative to control; type: functional, Hepacivirus hominis; settings: Huh-7, 48 h
[8] = Selectivity index, ratio of CC50 for human Huh7.5 cells to EC50 for HCV genotype 2a infected in Huh7.5-FGR-JC1-Rluc2A cells; parameters: species or system Huh-7
Hepatitis C virus [9] = test: Antiviral activity against HCV genotype 2a infected in Huh7.5-FGR-JC1-Rluc2A cells assessed as inhibition of viral RNA replication after 48 hrs by luciferase reporter gene assay; type: functional, organism-based, Hepacivirus hominis
Hepatitis C virus [10] = test: Antiviral activity against HCV genotype 2a infected in Huh7.5-FGR-JC1-Rluc2A cells assessed as inhibition of viral RNA replication at 50 uM after 48 hrs by luciferase reporter gene assay relative to control; type: functional, Hepacivirus hominis

Structure (SMILES): COc1ccc2c(c1)CCc1c-2oc2cc(O)ccc12
- Ratio CC50/EC50 [1]: 5.3
- viability at 40 h, 50 µM [2]: ≥ 80%
- inhibition (Hepacivirus hominis [3]): 37%
- inhibition (Hepacivirus hominis [4]): 36.2%
- EC50 (Hepatitis C virus [5]): 19.9 µM
- CC50 at 48 h [6]: 106 µM
- inhibition at 50 µM (Hepatitis C virus [7]): 97.9%
- Ratio CC50/EC50 [8]: 70.6
- EC50 (Hepatitis C virus [9]): 1.5 µM
- inhibition at 50 µM (Hepatitis C virus [10]): 99.8%

Structure (SMILES): Oc1ccc2c(c1)-c1oc3cc(O)ccc3c1CC2
- viability at 40 h, 50 µM [2]: ≥ 80%
- inhibition (Hepacivirus hominis [3]): 36.1%
- inhibition (Hepacivirus hominis [4]): 33.1%
- CC50 at 48 h [6]: 157 µM
- inhibition at 50 µM (Hepatitis C virus [7]): 49.3%
- Ratio CC50/EC50 [8]: 26.1
- EC50 (Hepatitis C virus [9]): 6 µM
- inhibition at 50 µM (Hepatitis C virus [10]): 97.8%

Structure (SMILES): Oc1ccc2c(c1)CCc1c-2oc2cc(O)ccc12
- Ratio CC50/EC50 [1]: 6.8
- viability at 40 h, 50 µM [2]: ≥ 80%
- inhibition (Hepacivirus hominis [3]): inactive
- inhibition (Hepacivirus hominis [4]): inactive
- EC50 (Hepatitis C virus [5]): 12.3 µM
- CC50 at 48 h [6]: 84.5 µM
- inhibition at 50 µM (Hepatitis C virus [7]): 98.1%
- Ratio CC50/EC50 [8]: 44.4
- EC50 (Hepatitis C virus [9]): 1.9 µM
- inhibition at 50 µM (Hepatitis C virus [10]): 99.6%

Structure (SMILES): c1ccc2c(c1)CCc1c-2oc2ccccc12
- Ratio CC50/EC50 [1]: >4.9
- viability at 40 h, 50 µM [2]: ≥ 80%
- inhibition (Hepacivirus hominis [3]): inactive
- inhibition (Hepacivirus hominis [4]): inactive
- EC50 (Hepatitis C virus [5]): 40.7 µM
- CC50 at 48 h [6]: > 200 µM
- inhibition at 50 µM (Hepatitis C virus [7]): 50.7%
- Ratio CC50/EC50 [8]: >13
- EC50 (Hepatitis C virus [9]): 15.3 µM
- inhibition at 50 µM (Hepatitis C virus [10]): 86.5%

Structure (SMILES): Oc1ccc2c(c1)-c1oc3ccccc3c1CC2
- Ratio CC50/EC50 [1]: 3.5
- viability at 40 h, 50 µM [2]: ≥ 80%
- inhibition (Hepacivirus hominis [3]): 39.4%
- inhibition (Hepacivirus hominis [4]): 38.5%
- EC50 (Hepatitis C virus [5]): 27.9 µM
- CC50 at 48 h [6]: 96.8 µM
- inhibition at 50 µM (Hepatitis C virus [7]): 95.1%
- Ratio CC50/EC50 [8]: 42.1
- EC50 (Hepatitis C virus [9]): 2.3 µM
- inhibition at 50 µM (Hepatitis C virus [10]): 98.4%

Structure (SMILES): Oc1ccc2c3c(oc2c1)-c1ccccc1CC3
- Ratio CC50/EC50 [1]: 7.2
- viability at 40 h, 50 µM [2]: ≥ 80%
- inhibition (Hepacivirus hominis [3]): inactive
- inhibition (Hepacivirus hominis [4]): inactive
- EC50 (Hepatitis C virus [5]): 13.9 µM
- CC50 at 48 h [6]: 99.9 µM
- inhibition at 50 µM (Hepatitis C virus [7]): 90.1%
- Ratio CC50/EC50 [8]: 15.8
- EC50 (Hepatitis C virus [9]): 5.7 µM
- inhibition at 50 µM (Hepatitis C virus [10]): 97.2%

Structure (SMILES): Oc1ccc2c3c(oc2c1)-c1cc(O)c(O)cc1CC3
- Ratio CC50/EC50 [1]: 20.9
- viability at 40 h, 50 µM [2]: ≥ 80%
- inhibition (Hepacivirus hominis [3]): inactive
- inhibition (Hepacivirus hominis [4]): inactive
- EC50 (Hepatitis C virus [5]): 5.5 µM
- CC50 at 48 h [6]: 115 µM
- inhibition at 50 µM (Hepatitis C virus [7]): 98.6%
- Ratio CC50/EC50 [8]: 18.8
- EC50 (Hepatitis C virus [9]): 6.1 µM
- inhibition at 50 µM (Hepatitis C virus [10]): 96.9%

Structure (SMILES): Oc1ccc2c3c(oc2c1)-c1cccc(O)c1CC3
- Ratio CC50/EC50 [1]: 10.1
- viability at 40 h, 50 µM [2]: ≥ 80%
- inhibition (Hepacivirus hominis [3]): 33.3%
- inhibition (Hepacivirus hominis [4]): 38%
- EC50 (Hepatitis C virus [5]): 5.9 µM
- CC50 at 48 h [6]: 59.5 µM
- inhibition at 50 µM (Hepatitis C virus [7]): 96.7%
- Ratio CC50/EC50 [8]: 24.7
- EC50 (Hepatitis C virus [9]): 2.4 µM
- inhibition at 50 µM (Hepatitis C virus [10]): 99.7%
